Reference: patent US20230286970A1, “NOVEL OXADIAZOLE-BASED SELECTIVE HDAC6 INHIBITORS” (ITALFARMACO S.P.A., priority 2020, published 2023)

What was measured:
[1] = target: recombinant human HDAC6 (Homo sapiens (Human), UniProt Q9UBN7); assay: Enzymatic screening, HDAC6 inhibition (fluorogenic FdL_G substrate); assay type: biochemical
Method in brief: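 Enzyme was preincubated with compound (8 doses, triplicate, 1% DMSO) in 25 mM Tris-HCl pH 8, 130 mM NaCl, 0.05% Tween-20, 10% glycerol, with BSA. A FLUOR DE LYS-Green substrate was then added, and fluorescence was read after developer plus 2 μM TSA.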

[2] = target: recombinant human HDAC1 (Homo sapiens (Human), UniProt Q13547); assay: Enzymatic screening, HDAC1 inhibition (fluorogenic FdL_G substrate); assay type: biochemical
Method in brief: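 Recombinant human HDAC1 inhibition was measured fluorometrically using the FLUOR DE LYS-Green (FdL_G) substrate. Compounds at 8 doses (1% DMSO final) in Tris-HCl pH 8 buffer with NaCl, Tween-20 and glycerol were preincubated in triplicate with enzyme and 1 mg/mL BSA, then given substrate. Developer I plus 2 μM TSA was added, and fluorescence read after 25 minutes in the dark.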

Chain of recombinant human HDAC1 (Q13547 whole entry): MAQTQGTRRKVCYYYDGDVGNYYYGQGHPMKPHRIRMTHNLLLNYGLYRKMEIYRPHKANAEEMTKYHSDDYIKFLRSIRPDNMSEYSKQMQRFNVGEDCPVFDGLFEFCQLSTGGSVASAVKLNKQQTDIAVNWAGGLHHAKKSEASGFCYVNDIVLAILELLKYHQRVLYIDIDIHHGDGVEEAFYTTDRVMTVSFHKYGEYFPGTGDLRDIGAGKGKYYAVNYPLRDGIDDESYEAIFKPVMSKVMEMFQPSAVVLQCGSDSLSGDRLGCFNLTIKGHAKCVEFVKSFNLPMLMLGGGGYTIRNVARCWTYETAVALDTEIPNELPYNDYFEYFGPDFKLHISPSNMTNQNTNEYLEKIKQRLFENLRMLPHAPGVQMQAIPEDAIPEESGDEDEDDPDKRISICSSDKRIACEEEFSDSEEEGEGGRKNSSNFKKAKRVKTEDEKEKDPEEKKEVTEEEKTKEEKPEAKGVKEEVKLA
Chain of recombinant human HDAC6 (Q9UBN7 whole entry): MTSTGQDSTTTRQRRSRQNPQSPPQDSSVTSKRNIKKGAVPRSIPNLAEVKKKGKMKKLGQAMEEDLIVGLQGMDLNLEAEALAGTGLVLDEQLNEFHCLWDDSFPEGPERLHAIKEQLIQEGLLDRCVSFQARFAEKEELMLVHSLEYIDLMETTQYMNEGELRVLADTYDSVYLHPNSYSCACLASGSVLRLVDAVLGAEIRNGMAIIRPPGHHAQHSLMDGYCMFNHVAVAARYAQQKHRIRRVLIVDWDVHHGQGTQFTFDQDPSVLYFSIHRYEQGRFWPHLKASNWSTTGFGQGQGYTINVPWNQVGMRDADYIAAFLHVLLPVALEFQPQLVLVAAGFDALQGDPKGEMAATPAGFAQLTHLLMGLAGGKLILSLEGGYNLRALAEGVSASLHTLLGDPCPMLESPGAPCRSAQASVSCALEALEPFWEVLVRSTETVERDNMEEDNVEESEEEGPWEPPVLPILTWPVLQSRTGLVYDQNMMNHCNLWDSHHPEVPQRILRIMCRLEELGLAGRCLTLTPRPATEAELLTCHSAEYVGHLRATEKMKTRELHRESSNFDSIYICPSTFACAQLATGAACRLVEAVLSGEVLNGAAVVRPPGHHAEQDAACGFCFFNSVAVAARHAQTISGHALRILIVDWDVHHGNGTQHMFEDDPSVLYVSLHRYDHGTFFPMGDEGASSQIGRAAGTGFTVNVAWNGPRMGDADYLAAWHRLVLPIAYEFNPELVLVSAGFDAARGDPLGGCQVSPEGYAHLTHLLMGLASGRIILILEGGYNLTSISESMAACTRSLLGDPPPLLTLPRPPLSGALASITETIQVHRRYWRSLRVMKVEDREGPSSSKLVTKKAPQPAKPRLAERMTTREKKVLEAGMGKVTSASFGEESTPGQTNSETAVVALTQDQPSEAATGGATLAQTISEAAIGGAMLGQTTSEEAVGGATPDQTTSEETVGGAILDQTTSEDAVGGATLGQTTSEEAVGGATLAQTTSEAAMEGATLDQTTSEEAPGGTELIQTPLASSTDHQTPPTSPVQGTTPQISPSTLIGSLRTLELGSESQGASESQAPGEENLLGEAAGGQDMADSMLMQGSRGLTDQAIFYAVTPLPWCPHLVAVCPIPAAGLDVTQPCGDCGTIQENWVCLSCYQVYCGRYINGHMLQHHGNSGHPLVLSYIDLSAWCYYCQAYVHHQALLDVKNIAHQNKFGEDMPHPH

Row | SMILES | IC50 [1] [nM] | IC50 [2] [nM]
1 | NC(=O)c1cc(-c2nnn(Cc3ccc(-c4nnc(C(F)F)o4)cc3)n2)ccc1N [compound 72, 2-amino-5-(2-(4-(5-(difluoromethyl)-1,3,4-oxadiazol-2-yl)benzyl)-2H-tetrazol-5-yl)benzamide] | 30 | > 200000
2 | FC(F)c1nnc(-c2ccc(Cn3nnc(-c4cccc(-n5cccn5)c4)n3)cc2)o1 [compound 188, 2-(4-((5-(3-(1H-pyrazol-1-yl)phenyl)-2H-tetrazol-2-yl)methyl)phenyl)-5-(difluoromethyl)-1,3,4-oxadiazole] | 99 | > 200000
3 | Nc1nc2cc(-c3cn(Cc4ccc(-c5nnc(C(F)F)o5)cc4)cn3)ccc2s1 [compound 300, 5-(1-(4-(5-(difluoromethyl)-1,3,4-oxadiazol-2-yl)benzyl)-1H-imidazol-4-yl)benzo[d]thiazol-2-amine] | 67 | > 200000
4 | FC(F)c1nnc(-c2ccc(Cc3cn(-c4ccc(NC5=NCCN5)cc4)nn3)cc2)o1 [compound 316, N-(4-(4-(4-(5-(difluoromethyl)-1,3,4-oxadiazol-2-yl)benzyl)-1H-1,2,3-triazol-1-yl)phenyl)-4,5-dihydro-1H-imidazol-2-amine] | 56 | > 1e+06
5 | FC(F)c1nnc(-c2ccc(Cn3nnc(-c4cncc5ccccc45)n3)cc2)o1 [compound 118, 2-(difluoromethyl)-5-(4-((5-(isoquinolin-4-yl)-2H-tetrazol-2-yl)methyl)phenyl)-1,3,4-oxadiazole] | 44 | > 200000
6 | O=C(Nc1cccc(-c2cn(Cc3ncc(-c4nnc(C(F)F)o4)cc3F)nn2)c1)N1CCOCC1 [compound 336, N-[3-[1-[[5-[5-(difluoromethyl)-1,3,4-oxadiazol-2-yl]-3-fluoropyridin-2-yl]methyl]triazol-4-yl]phenyl]morpholine-4-carboxamide] | 57 | > 1e+06
7 | Nc1ncnc2sc(-c3cn(Cc4ccc(-c5nnc(C(F)F)o5)cc4F)nn3)cc12 [compound 416, 6-[1-({4-[5-(difluoromethyl)-1,3,4-oxadiazol-2-yl]-2-fluorophenyl}methyl)-1H-1,2,3-triazol-4-yl]thieno[2,3-d]pyrimidin-4-amine] | 46 | 1e+06
8 | Nc1ccc(-c2cn(C(COc3ccccc3)c3ccc(-c4nnc(C(F)F)o4)cc3)nn2)cn1 (stereo not shown) [compound 236, 5-(1-(1-(4-(5-(difluoromethyl)-1,3,4-oxadiazol-2-yl)phenyl)-2-phenoxyethyl)-1H-1,2,3-triazol-4-yl)pyridin-2-amine] | 206 | > 200000
9 | CN(Cc1ccncc1)Cc1ccc(-c2nnn(Cc3ccc(-c4nnc(C(F)F)o4)cc3)n2)cc1 [compound 215, N-(4-(2-(4-(5-(difluoromethyl)-1,3,4-oxadiazol-2-yl)benzyl)-2H-tetrazol-5-yl)benzyl)-N-methyl-1-(pyridin-4-yl)methanamine] | 151 | > 200000
10 | O=C1Nc2cc(-c3cn(Cc4ccc(-c5nnc(C(F)F)o5)cc4)nn3)ccc2NC12CCNCC2 [compound 277, 6′-(1-(4-(5-(difluoromethyl)-1,3,4-oxadiazol-2-yl)benzyl)-1H-1,2,3-triazol-4-yl)-1′,4′-dihydro-3′H-spiro[piperidine-4,2′-quinoxalin]-3′-one] | 72 | 166000
11 | Nc1nc2ccc(-c3cn(Cc4ccc(-c5nnc(C(F)F)o5)cc4)cn3)cc2s1 [compound 306, 6-[1-[[4-[5-(difluoromethyl)-1,3,4-oxadiazol-2-yl]phenyl]methyl]imidazol-4-yl]-1,3-benzothiazol-2-amine] | 32 | > 1e+06
12 | CCNc1cccc(-c2cn(Cc3ccc(-c4nnc(C(F)F)o4)cc3)nn2)c1 [compound 180, 3-(1-(4-(5-(difluoromethyl)-1,3,4-oxadiazol-2-yl)benzyl)-1H-1,2,3-triazol-4-yl)-N-ethylaniline] | 92 | > 200000
13 | O=C1Nc2ccc(-c3cn(Cc4ccc(-c5nnc(C(F)F)o5)cn4)nn3)cc2C12CCCC2 [Compd. 26, 5′-(1-((5-(5-(difluoromethyl)-1,3,4-oxadiazol-2-yl)pyridin-2-yl)methyl)-1H-1,2,3-triazol-4-yl)spiro[cyclopentane-1,3′-indolin]-2′-one] | 8 | > 200000
14 | NCc1ccc(-c2cn(Cc3c(F)cc(-c4nnc(C(F)F)o4)cc3F)nn2)cn1 [compound 101, (5-(1-(4-(5-(difluoromethyl)-1,3,4-oxadiazol-2-yl)-2,6-difluorobenzyl)-1H-1,2,3-triazol-4-yl)pyridin-2-yl)methanamine] | 39 | > 200000
15 | [2H]C([2H])(c1cc(F)c(-c2nnc(C(F)F)o2)cc1F)n1cc(-c2ccc(N)nc2)nn1 [compound 381, 5-[1-[dideuterio-[4-[5-(difluoromethyl)-1,3,4-oxadiazol-2-yl]-2,5-difluorophenyl]methyl]triazol-4-yl]pyridin-2-amine] | 28 | > 1e+06
16 | FC(F)c1nnc(-c2ccc(Cn3nnc(Cc4ccccn4)n3)cc2)o1 [compound 251, 2-(difluoromethyl)-5-(4-((5-(pyridin-2-ylmethyl)-2H-tetrazol-2-yl)methyl)phenyl)-1,3,4-oxadiazole] | 298 | > 200000
17 | FC(F)c1nnc(-c2ccc(Cn3nnc(-c4ccc(CN5CCCCC5)cc4)n3)cc2)o1 [compound 87, 2-(difluoromethyl)-5-(4-((5-(4-(piperidin-1-ylmethyl)phenyl)-2H-tetrazol-2-yl)methyl)phenyl)-1,3,4-oxadiazole] | 34 | > 200000
18 | Nc1nc2cc(-c3cn(Cc4ccc(-c5nnc(C(F)F)o5)cn4)cn3)ccc2o1 [compound 308, 5-(1-((5-(5-(difluoromethyl)-1,3,4-oxadiazol-2-yl)pyridin-2-yl)methyl)-1H-imidazol-4-yl)benzo[d]oxazol-2-amine] | 15 | > 1e+06
19 | O=C(Nc1cccc(-c2cnn(Cc3ccc(-c4nnc(C(F)F)o4)cn3)c2)c1)N1CCOCC1 [compound 119, N-(3-(1-((5-(5-(difluoromethyl)-1,3,4-oxadiazol-2-yl)pyridin-2-yl)methyl)-1H-pyrazol-4-yl)phenyl)morpholine-4-carboxamide] | 45 | > 200000
20 | Cn1c(N)nc2ccc(-c3cn(Cc4ccc(-c5nnc(C(F)F)o5)cc4)nn3)cc21 [compound 166, 6-(1-(4-(5-(difluoromethyl)-1,3,4-oxadiazol-2-yl)benzyl)-1H-1,2,3-triazol-4-yl)-1-methyl-1H-benzo[d]imidazol-2-amine] | 78 | > 200000
21 | Nc1ccc(-c2cn(C(CO)c3ccc(-c4nnc(C(F)F)o4)cc3)nn2)cn1 (stereo not shown) [Compd. 94, 2-(4-(6-aminopyridin-3-yl)-1H-1,2,3-triazol-1-yl)-2-(4-(5-(difluoromethyl)-1,3,4-oxadiazol-2-yl)phenyl)ethan-1-ol] | 36 | > 200000
22 | CN(Cc1ccncc1)Cc1ccc(-c2cn(Cc3ccc(-c4nnc(C(F)F)o4)cc3)nn2)cc1 [compound 282, N-(4-(1-(4-(5-(difluoromethyl)-1,3,4-oxadiazol-2-yl)benzyl)-1H-1,2,3-triazol-4-yl)benzyl)-N-methyl-1-(pyridin-4-yl)methanamine] | 282 | > 200000
23 | Nc1ccc(-c2cn(Cc3ncc(-c4nnc(C(F)F)o4)cn3)nn2)cn1 [compd. 125, 5-(1-((5-(5-(difluoromethyl)-1,3,4-oxadiazol-2-yl)pyrimidin-2-yl)methyl)-1H-1,2,3-triazol-4-yl)pyridin-2-amine] | 48 | > 200000
24 | CC(=O)N1CCC(c2nnn(Cc3ccc(-c4nnc(C(F)F)o4)cc3)n2)CC1 [compound 257, 1-(4-(2-(4-(5-(difluoromethyl)-1,3,4-oxadiazol-2-yl)benzyl)-2H-tetrazol-5-yl)piperidin-1-yl)ethan-1-one] | 395 | > 200000
25 | CC(=O)Nc1cccc(-c2cn(Cc3ccc(-c4nnc(C(F)F)o4)cc3)nn2)c1 [compound 139, N-(3-(1-(4-(5-(difluoromethyl)-1,3,4-oxadiazol-2-yl)benzyl)-1H-1,2,3-triazol-4-yl)phenyl)acetamide] | 55 | > 200000
26 | CC(C)(C)OC(=O)N1CCC2(CC1)C(=O)Nc1ccc(-c3cn(Cc4ccc(-c5nnc(C(F)F)o5)cc4)nn3)cc12 [compound 216, tert-butyl 5-(1-(4-(5-(difluoromethyl)-1,3,4-oxadiazol-2-yl)benzyl)-1H-1,2,3-triazol-4-yl)-2-oxospiro[indoline-3,4′-piperidine]-1′-carboxylate] | 151 | > 200000
27 | FC(F)c1nnc(-c2ccc(Cn3nnc(-c4cccc(-c5cnc(N6CCOCC6)s5)c4)n3)nc2)o1 [compound 130, 4-(5-(3-(2-((5-(5-(difluoromethyl)-1,3,4-oxadiazol-2-yl)pyridin-2-yl)methyl)-2H-tetrazol-5-yl)phenyl)thiazol-2-yl)morpholine] | 50 | > 200000
28 | Cn1c(N)nc2cc(-c3nnn(Cc4cc(F)c(-c5nnc(C(F)F)o5)cc4F)n3)ccc21 [compound 372, 5-[2-[[4-[5-(difluoromethyl)-1,3,4-oxadiazol-2-yl]-2,5-difluorophenyl]methyl]tetrazol-5-yl]-1-methylbenzimidazol-2-amine] | 19 | > 1e+06
29 | O=C1Nc2ccc(-c3cn(Cc4ccc(-c5nnc(C(F)F)o5)cc4)nn3)cc2C12CCCC2 [compound 61, 5′-(1-(4-(5-(difluoromethyl)-1,3,4-oxadiazol-2-yl)benzyl)-1H-1,2,3-triazol-4-yl)spiro[cyclopentane-1,3′-indolin]-2′-one] | 27 | > 200000
